Converted amounts (≈) assume the structure as drawn. Where two headings read alike, the source gives them in different places.
Key:
B. henselae [1] = details: cited from earlier work
[2] = test system: B. henselae and B. vinsonii; assay: Cell-free MBC assay, summary over both species; type: cell-based, Bartonella; details: 10 μg/ml
Experimental: (§1) Briefly, the bacterial culture that was treated with therapeutic agents for 96 hrs was collected into a 1.5 ml microcentrifuge tubes and centrifuged at 7000 rpm for 10 min. The supernatant was removed, and the bacterial pellet was washed with 1×PBS twice. The bacterial pellet was then resuspended in 100 μL of 1×PBS, plated onto blood agar plates and incubated at 37° C. with 5% CO2 for about 14 days. This assay was repeated three times with all the 6 different antibiotics (azlocillin, azithromycin, ceftriaxone, doxycycline, gentamicin and ampicillin) and at different concentrations.
For this assay, both B. henselae and B. vinsonii were grown in Grace's insect media and were tested against all of the 6 antibiotics (ceftriaxone, doxycycline, gentamicin, azithromycin, azlocillin, ampicillin). […] However, ceftriaxone, gentamicin, azithromycin, and azlocillin were all bactericidal and completely eliminated the growth at concentrations below 10 µg/ml. Table 2 provides comparison of MBCs for B. henselae and B. vinsonii strains in cell-free liquid culture medium determined by incubating the bacteria with antibiotics in a 96-well plate and plating on tryptic soy agar supplemented with 5% sheep blood. Additionally, MBC for B. henselae determined by DH82 cell-based assay (right column) is provided.

B. henselae [3] = assay: Cell-free, liquid culture MBC assay; type: cell-based, Bartonella henselae; details: 96 hrs, plated on blood agar
Experimental: The B. henselae strains used were San Antonio 2, 267HO04, a human clinical isolate and B. vinsonii subsp. berkhoffii. Both the bacteria were initially grown on tryptic soy agar (TSA) supplemented with 5% defibrinated sheep blood plates that were either pre-made (Remel, R01198) or homemade, in a humidified atmosphere at 37° C. with 5% CO2 for 7 days. For the preparation of liquid cultures, an individual well-grown colony from the plate was resuspended in 15 ml Falcon tubes containing 3 mL of either Schneider's insect media supplemented with 10% FBS, or Grace's insect media (Gibco, 11605-094) supplemented with 10% FBS, or BAPGM serum-free liquid media. The cultures grew for 7 more days in the atmosphere as above without shaking. The number of viable bacteria was determined by either plating serial dilutions of the culture on plates for CFU or by live/dead staining. Before every experiment, bacteria were mixed well and passed through 22-gauge needle to break large clumps of bacteria.
as §1
(§2) Therapeutic agent stocks were prepared in the following solvents: 10 mg/ml of ceftriaxone (USP), doxycycline (Fisher scientific, D9891-1G), gentamicin (Fisher scientific, 1405-41-0), ampicillin (Fisher scientific, 69-52-3) and azlocillin (Flightpath) in sterile cell culture grade water, whereas 5 mg/ml of azithromycin (Sigma, PZ0007-5MG) was dissolved in sterile cell culture grade DMSO. Antibiotics were then aliquoted and stored at either −80° C. or −20° C. until further use. On the day of assay, these stock concentrations were diluted to 1 mg/ml and 100 μg/ml in the respected bacterial culture media for MIC and cell-free, liquid culture MBC assays. For the DH82 cell-based MBC assay, antibiotics were diluted in EMEM media supplemented with 15% heat inactivated FBS.
For this assay, both B. henselae and B. vinsonii were grown in Grace's insect media and were tested against all of the 6 antibiotics (ceftriaxone, doxycycline, gentamicin, azithromycin, azlocillin, ampicillin).

[4] = test system: intracellular B. henselae in DH82 cells; assay: DH82 cell-based MBC assay (coculture); set-up: species or system Bartonella henselae (canine DH82 cells); details: for MBC: B. henselae, DH82 cell-based assay, 96 hours; for effect of individual therapeutic agent on B. henselae growth: DH82 cell-based system, 16 μg/ml, agents used individually
Experimental: DH82 are a canine cell line having a macrophage-like morphology. Cells were initially cultured in T75-Flasks (Corning, 430641U) until confluency was reached and were split at a ratio of 1:4 for every 2-3 days. Cells were then seeded into either 24-well cell culture plates (Corning, 3526) for coculture assay or 8-well chamber slides (Millipore #PEGGS0816) for immunofluorescence assays. A total of 50,000 cells were seeded into each well of a 24-well plate or per chamber of an 8-well chamber slide with EMEM with 15% FBS and incubated for 24-48 hours before infections.
as §2
Bacteria (B. henselae) that were grown in Grace's insect media, were centrifuged at 7000 rpm for 10 min. The supernatant was removed and washed with 1×PBS for three times. After the washes, pellet was resuspended in EMEM media supplemented with 15% heat inactivated FBS. This bacterial suspension was then added to DH82 cells at a multiplicity of infection (MOI) of 1:50 and incubated for 2 hours. After 2 hours, unbound bacteria were removed by washing the cells with only EMEM media 3 times each 15 min wash. Cells were then incubated with EMEM+15% FBS media at 37° C. with 5% CO2 for 48 hours.
After 48 hrs of incubation, the media was removed from the cells and the therapeutic agents that were diluted in EMEM+15% FBS was added. Each therapeutic agent was diluted at 11 different concentrations (16, 8, 4, 2, 1, 0.5, 0.25, 0.125, 0.062, 0.031, 0.0156 μg/ml), as described above and incubated for 96 hours. […] The bactericidal activity of the therapeutic agents were then evaluated by plating the lysed cells on blood agar plates. Briefly, infected DH82 cells were initially washed for 30 min twice to remove the antibiotics that were added. Later, cells were osmotically lysed by adding 1 ml of sterile ice-cold distilled water and incubated for 5 min on ice. The lysed cells were then plated onto blood agar plates and incubated at 37° C. with 5% CO2 for about 10 days to evaluate the growth of viable B. henselae. This experiment was conducted in duplicates and repeated twice with all 6 antibiotics including 11 different concentrations. The untreated infected cells were used as a positive control and untreated uninfected cells served as a negative control. The CFU counts are presented as average±standard deviation.
To evaluate the bactericidal activity and to determine if these antibiotics could penetrate the eukaryotic […], a new DH82 cell-based coculture system was utilized. […] Uninfected cells stained with primary rabbit B. henselaehyperimmunized polyclonal (primary) and goat anti-rabbit IgG Alexa fluor 594 (secondary) antibodies were used as a negative control. As an isotype control, DH82 cells infected with B. henselae and incubated with primary rabbit IgG were used.

[5] = Bartonella henselae, read-out: MBC

| Molecule | activity against growing bacterial culture (B. henselae [1]; growing culture) | activity against stationary phase B. henselae (B. henselae [1]; stationary phase) | growth on blood agar plates [2] | MBC (B. henselae [3]; [5]) [mg/L] | MBC [4, 5] [mg/L] | effect of individual therapeutic agent on B. henselae growth [4] | MBC (B. henselae [3]) [mg/L] | MBC [4] [mg/L] |
| --- | --- | --- | --- | --- | --- | --- | --- | --- |
| CC[C@H]1OC(=O)[C@H](C)[C@@H](O[C@H]2C[C@@](C)(OC)[C@@H](O)[C@H](C)O2)[C@H](C)[C@@H](O[C@@H]2O[C@H](C)C[C@H](N(C)C)[C@H]2O)[C@](C)(O)C[C@@H](C)CN(C)[C@H](C)[C@@H](O)[C@]1(C)O [Azithromycin, azithromycin] | effective | very poor activity | no growth on blood agar plates | 5 to 10 (≈ 6.68 to 13.4 µM) | > 16 | showed reduced bacterial growth but were unable to completely inhibit the growth | – | – |
| CC1(C)S[C@@H]2[C@H](NC(=O)[C@H](NC(=O)N3CCNC3=O)c3ccccc3)C(=O)N2[C@H]1C(=O)O [Azlocillin, azlocillin] | – | – | no growth on blood agar plates | 1 to 2 (≈ 2.17 to 4.33 µM) | > 16 | showed reduced bacterial growth but were unable to completely inhibit the growth | – | – |
| CO/N=C(\C(=O)N[C@@H]1C(=O)N2C(C(=O)O)=C(CSc3nc(=O)c(=O)[nH]n3C)CS[C@H]12)c1csc(N)n1 [Ceftriaxone, ceftriaxone] | – | – | no growth on blood agar plates | 2 to 4 (≈ 3.61 to 7.21 µM) | > 16 | – | – | – |
| gentamicin | – | – | – | – | – | – | 2.0 to 4.0 | >16 |
